Measurements from ChEMBL document CHEMBL3351381, “Synthesis, structure-activity relationship studies, and antibacterial evaluation of 4-chromanones and chalcones, as well as olympicin A and derivatives” (J Med Chem, 2014).
Values after ≈ are worked out from the molar mass of the structure shown.

How the values were obtained:
Assay type in all cases: functional
Enterococcus faecalis = experiment: Antimicrobial activity against Enterococcus faecalis ATCC 33186 by microbroth dilution method
Staphylococcus aureus [1] = experiment: Antimicrobial activity against methicillin-sensitive Staphylococcus aureus ATCC 29213 by microbroth dilution method
Escherichia coli [2] = experiment: Antimicrobial activity against Escherichia coli K-12 by microbroth dilution method
Escherichia coli [3] = experiment: Antimicrobial activity against tolC-deficient Escherichia coli by microbroth dilution method
Staphylococcus aureus [4] = experiment: Antimicrobial activity against methicillin-resistant Staphylococcus aureus NRS 70 by microbroth dilution method
Klebsiella pneumoniae = experiment: Antimicrobial activity against Klebsiella pneumoniae ATCC 33495 at >200 ug/ml by microbroth dilution method
Pseudomonas aeruginosa = experiment: Antimicrobial activity against Pseudomonas aeruginosa PAO1 at >200 ug/ml by microbroth dilution method
[5] = system: Mycobacterium tuberculosis; experiment: Antimicrobial activity against Mycobacterium tuberculosis H37Rv by microbroth dilution method

SMILES	MIC (Enterococcus faecalis) [µg/mL]	MIC (Staphylococcus aureus [1]) [µg/mL]	MIC (Escherichia coli [2]) [µg/mL]	MIC (Escherichia coli [3]) [µg/mL]	MIC (Staphylococcus aureus [4]) [µg/mL]	MIC (Klebsiella pneumoniae) [µg/mL]	MIC (Pseudomonas aeruginosa) [µg/mL]	MIC [5] [µg/mL]
CC1(C)S[C@@H]2[C@H](NC(=O)[C@H](N)c3ccccc3)C(=O)N2[C@H]1C(=O)O [AMPICILLIN]	0.78 (≈ 2.23 µM)	1.56 (≈ 4.46 µM)	3.13 (≈ 8.96 µM)	1.56 (≈ 4.46 µM)	12.5 (≈ 35.8 µM)	> 200	> 200	
O=C1CC(c2ccc(N3CCCCC3)cc2)Oc2cc(O)ccc21 (configuration not stated)	200 (≈ 618 µM)	> 200	> 200	12.5 (≈ 38.7 µM)	> 200	> 200	> 200	> 200
CCCCCCCCCC1C/C(=N\OC)c2c(O)cc(O)cc2O1 (configuration not stated)	> 200	100 (≈ 298 µM)	> 200	> 200	25 (≈ 74.5 µM)	> 200	> 200	200 (≈ 596 µM)
CCCCCCCCCC1CC(=O)c2c(OCOC)cc(OCOC)cc2O1 (configuration not stated)	> 200	> 200	> 200	> 200	> 200	> 200	> 200	100 (≈ 253 µM)
O=C1CC2(CCCC2)Oc2cc(O)ccc21	> 200	> 200	> 200	100 (≈ 458 µM)	> 200	> 200	> 200	200 (≈ 916 µM)
CC1(C)C2CC=C(/C=C/C(=O)c3c(O)cc(O)cc3O)C1C2 (configuration not stated)	25 (≈ 83.2 µM)	> 200	> 200	6.25 (≈ 20.8 µM)	200 (≈ 666 µM)	> 200	> 200	> 200
CCCCCCOc1cc(O)cc(O)c1C(=O)C(C)CC (racemic)	1.56 (≈ 5.3 µM)	1.56 (≈ 5.3 µM)	> 200	3.13 (≈ 10.6 µM)	1.56 (≈ 5.3 µM)	> 200	> 200	100 (≈ 340 µM)
C=CCOc1cccc(/C=C/C(=O)c2ccc(O)cc2O)c1	> 200	6.25 (≈ 21.1 µM)	> 200	3.13 (≈ 10.6 µM)	12.5 (≈ 42.2 µM)	> 200	> 200	50 (≈ 169 µM)
C=CCOc1ccccc1/C=C/C(=O)c1ccc(O)cc1	100 (≈ 357 µM)	12.5 (≈ 44.6 µM)	> 200	6.25 (≈ 22.3 µM)	6.25 (≈ 22.3 µM)	> 200	> 200	200 (≈ 713 µM)
CCCCCCC1CC(O)c2ccc(O)cc2O1 (configuration not stated)	50 (≈ 200 µM)	> 200	> 200	3.13 (≈ 12.5 µM)	200 (≈ 799 µM)	> 200	> 200	50 (≈ 200 µM)
CCCCCCC1CC(=O)c2c(OCOC)cc(OCOC)cc2O1 (configuration not stated)	> 200	> 200	> 200	6.25 (≈ 17.7 µM)	> 200	> 200	> 200	50 (≈ 142 µM)
CCCCCCC1CC(=O)c2c(O)cc(O)cc2O1 (configuration not stated)	100 (≈ 378 µM)		> 200	3.13 (≈ 11.8 µM)	6.25 (≈ 23.6 µM)	> 200	> 200	50 (≈ 189 µM)
O=C1CC2(CCCCCC2)Oc2cc(O)ccc21	200 (≈ 812 µM)	50 (≈ 203 µM)	> 200	12.5 (≈ 50.7 µM)	50 (≈ 203 µM)	> 200	> 200	100 (≈ 406 µM)
NC[C@H]1O[C@H](O[C@H]2[C@H](O)[C@@H](O[C@H]3O[C@H](CO)[C@@H](O)[C@H](N)[C@H]3O)[C@H](N)C[C@@H]2N)[C@H](O)[C@@H](O)[C@@H]1O [KANAMYCIN]	25 (≈ 51.6 µM)	1.56 (≈ 3.22 µM)	3.13 (≈ 6.46 µM)	< 0.2	50 (≈ 103 µM)	> 200	> 200	
COCOc1cc(OCOC)c2c(c1)OC(CC(C)CCC=C(C)C)CC2=O (configuration not stated)	> 200	> 200	> 200	> 200	> 200	> 200	> 200	> 200
CC1(C)C2CC=C(C3CC(=O)c4ccc(O)cc4O3)C1C2 (configuration not stated)	> 200	200 (≈ 703 µM)	> 200	6.25 (≈ 22 µM)	200 (≈ 703 µM)	> 200	> 200	> 200
O=C(N[C@H](CO)[C@H](O)c1ccc([N+](=O)[O-])cc1)C(Cl)Cl [CHLORAMPHENICOL]	0.78 (≈ 2.41 µM)	3.13 (≈ 9.69 µM)	3.13 (≈ 9.69 µM)	0.39 (≈ 1.21 µM)	1.56 (≈ 4.83 µM)	> 200	> 200	
CC(C)=CCCC(C)CC1CC(=O)c2c(O)cccc2O1 (configuration not stated)	> 200	> 200	> 200	> 200	> 200	> 200	> 200	> 200
CCCC1C/C(=N\O)c2c(O)cc(O)cc2O1 (configuration not stated)	100 (≈ 421 µM)	100 (≈ 421 µM)	> 200	25 (≈ 105 µM)	50 (≈ 211 µM)	> 200	> 200	100 (≈ 421 µM)
O=C1CC(C2CCCCC2)Oc2cc(O)cc(O)c21 (configuration not stated)	25 (≈ 95.3 µM)	25 (≈ 95.3 µM)	> 200	6.25 (≈ 23.8 µM)	25 (≈ 95.3 µM)	> 200	> 200	100 (≈ 381 µM)

SMILES	MIC (Enterococcus faecalis) [µg/mL]	MIC (Staphylococcus aureus [1]) [µg/mL]	MIC (Escherichia coli [2]) [µg/mL]	MIC (Escherichia coli [3]) [µg/mL]	MIC (Staphylococcus aureus [4]) [µg/mL]	MIC (Klebsiella pneumoniae) [µg/mL]	MIC (Pseudomonas aeruginosa) [µg/mL]	MIC [5] [µg/mL]
CC(C)=CCCC(C)CC1CC(=O)c2cc(O)ccc2O1 (configuration not stated)	6.25 (≈ 21.7 µM)	6.25 (≈ 21.7 µM)	> 200	3.13 (≈ 10.9 µM)	12.5 (≈ 43.3 µM)	> 200	> 200	200 (≈ 694 µM)
COCOc1ccc(C(=O)/C=C/C2=CCC3CC2C3(C)C)c(O)c1 (configuration not stated)	> 200	> 200	> 200	25 (≈ 76.1 µM)	> 200	> 200	> 200	100 (≈ 304 µM)
CCCCCCCC1CC(O)c2ccc(O)cc2O1 (configuration not stated)	25 (≈ 94.6 µM)	12.5 (≈ 47.3 µM)	> 200	6.25 (≈ 23.6 µM)	12.5 (≈ 47.3 µM)	> 200	> 200	25 (≈ 94.6 µM)
NNC(=O)c1ccncc1 [ISONIAZID]								0.03 (≈ 0.219 µM)
CCCCCCCCCC1C/C(=N\OCc2ccccc2)c2c(O)cc(O)cc2O1 (configuration not stated)	50 (≈ 121 µM)	> 200	> 200	> 200	> 200	> 200	> 200	> 200
CCC(C)C(=O)c1c(O)cc(O)cc1OC/C=C(\C)CCC=C(C)C (racemic)				> 200	3.13 (≈ 9.03 µM)	> 200	> 200	200 (≈ 577 µM)
CC1(C)C2CC=C(C3CC(=O)c4c(O)cc(O)cc4O3)C1C2 (configuration not stated)	12.5 (≈ 41.6 µM)	12.5 (≈ 41.6 µM)	> 200	3.13 (≈ 10.4 µM)	6.25 (≈ 20.8 µM)	> 200	> 200	200 (≈ 666 µM)
O=C1CC(CCc2ccccc2)Oc2cc(O)ccc21 (configuration not stated)	> 200	50 (≈ 186 µM)	> 200	12.5 (≈ 46.6 µM)	50 (≈ 186 µM)	> 200	> 200	100 (≈ 373 µM)
CCCC1CC(=O)c2ccc(O)cc2O1 (configuration not stated)	> 200	200 (≈ 970 µM)	> 200	50 (≈ 242 µM)	> 200	> 200	> 200	200 (≈ 970 µM)
CCCC1CC(O)c2ccc(O)cc2O1 (configuration not stated)	100 (≈ 480 µM)	50 (≈ 240 µM)	> 200	50 (≈ 240 µM)	50 (≈ 240 µM)	> 200	> 200	12.5 (≈ 60 µM)
COCOc1ccc2c(c1)OC(C1=CCC3CC1C3(C)C)CC2=O (configuration not stated)	> 200	> 200	> 200	6.25 (≈ 19 µM)	> 200	> 200	> 200	100 (≈ 304 µM)
CCCCCCCCOc1ccccc1/C=C/C(=O)c1ccc(O)cc1O	1.56 (≈ 4.23 µM)	25 (≈ 67.8 µM)	> 200	> 200	6.25 (≈ 17 µM)	> 200	> 200	> 200
C=CCOc1cc(O)cc(O)c1C(=O)[C@@H](C)CC	12.5 (≈ 49.9 µM)	12.5 (≈ 49.9 µM)		3.13 (≈ 12.5 µM)	12.5 (≈ 49.9 µM)	> 200	> 200	
CCCCCCC1CC(=O)c2ccc(O)cc2O1 (configuration not stated)	> 200	> 200	> 200	3.13 (≈ 12.6 µM)	> 200	> 200	> 200	50 (≈ 201 µM)
C=CCOc1ccc(/C=C/C(=O)c2ccc(O)cc2O)cc1	100 (≈ 337 µM)	25 (≈ 84.4 µM)	> 200	> 200	> 200	> 200	> 200	50 (≈ 169 µM)
CCCCCCCCCC1CC(=O)c2ccc(O)cc2O1 (configuration not stated)	200 (≈ 689 µM)	> 200	> 200	> 200	> 200	> 200	> 200	> 200
C=CCOc1ccccc1C1CC(=O)c2c(O)cc(O)cc2O1 (configuration not stated)	50 (≈ 160 µM)	25 (≈ 80 µM)	> 200	6.25 (≈ 20 µM)	12.5 (≈ 40 µM)	> 200	> 200	> 200
CCCCCCCCCC1CC(O)c2ccc(O)cc2O1 (configuration not stated)	50 (≈ 171 µM)	20 (≈ 68.4 µM)	> 200	12.5 (≈ 42.7 µM)	25 (≈ 85.5 µM)	> 200	> 200	> 200
C=CCOc1ccccc1/C=C/C(=O)c1c(O)cc(O)cc1O	50 (≈ 160 µM)	> 200	> 200	12.5 (≈ 40 µM)	25 (≈ 80 µM)	> 200	> 200	> 200
C=CCOc1cc(O)cc(O)c1C(=O)C(C)CC (racemic)			> 200	3.13 (≈ 12.5 µM)	6.25 (≈ 25 µM)	> 200	> 200	100 (≈ 400 µM)
